Measurements as given in ChEMBL document CHEMBL1157539, “Thousands of chemical starting points for antimalarial lead identification” (Nature, 2010).
Where a name gives a salt, the structure may show the parent alone. Non-standard residues stand in square brackets, D forms with d. Residues, ends and D or L forms follow the SMILES beside them. *: point of attachment. Butanoyl(4-(4-HOPh)) = O=C(CCCc1ccc(O)cc1)*; Boc = CC(C)(C)OC(=O)*

What follows are compounds tested on Plasmodium falciparum (assay: GSK_TCMDC: Inhibition of Plasmodium falciparum 3D7 in whole erythrocytes, using parasite LDH activity as an index of growth.). Conditions: not given.
Type: functional, organism-based

| SMILES | XC50 |
| --- | --- |
| CCOc1ccc2nccc([C@@H](O)[C@@H]3C[C@@H]4CCN3C[C@@H]4CC)c2c1 [ETHYLHYDROCUPREINE HYDROCHLORIDE] | 112 nM |
| CCOc1ccc2nccc([C@@H](O)[C@@H]3C[C@@H]4CCN3C[C@@H]4CC)c2c1 [ETHYLHYDROCUPREINE] | 612 nM |

Same assay, conditions: Plasmodium falciparum, 3D7

| SMILES | XC50 |
| --- | --- |
| O=[N+]([O-])c1ccc(Nc2nc(N/N=C/c3ccc(-c4ccc([N+](=O)[O-])cc4)o3)nc(Nc3ccccc3)n2)cc1 | 640 nM |
| COC(=O)CCCCOc1cc(Cc2cnc(N)nc2N)cc(OC)c1OC | 173 nM |
| O=C(Cn1c(CCc2cccc(F)c2F)nc(=O)c2ccccc21)N(Cc1ccc(-c2ccc(C(F)(F)F)cc2)cc1)C1CCN(C2CCOCC2)CC1 | 745 nM |
| COc1ccc(NC(=O)CCNc2ccnc(NCCc3ccc(F)cc3)n2)cc1 | 990 nM |
| CC(C)C(C(=O)n1ncc2c3c(N)nc(N)nc3ccc21)C(C)C | 648 nM |
| COc1cc(NC(=O)C(c2ccc(Cl)cc2)C(C)C)cc(OC)c1OC (configuration not stated) | 534 nM |
| COc1ccc(CC2(CO)CCN(Cc3ccc(O)c(Cl)c3)CC2)cc1 | 859 nM |
| COc1cc2nc(N3CCC(CNC(=O)c4ccc(C(C)=O)cc4)CC3)nc(N)c2cc1OC | 1120 nM |
| CC(CN1CCN(C)CC1)C(=O)Nc1ccc(-c2csc(-c3nc4ccccc4[nH]3)c2)cc1 (configuration not stated) | 837 nM |
| CCOC(=O)CC[C@@H](NC(=O)c1ccc(NCc2ccc3ccc4nc(C)[nH]c(=O)c4c3c2)cc1F)C(=O)N[C@@H](Cc1c[nH]c2ccccc12)C(=O)OCC | 1030 nM |
| Cc1cccc2c(C(=O)NC3CCN(Cc4ccccc4)CC3)cc(-c3cccnc3)nc12 | 1380 nM |
| CCCc1ccc(Nc2nc(C)cc(N(CC)CCCN3CCCCC3)n2)cc1 | 543 nM |
| Nc1nccc2ccc(-c3ccncc3)cc12 | 249 nM |
| Cc1ccc(-c2nnc3c4ccccc4c(C)nn23)cc1S(=O)(=O)N1CCN(CCO)CC1 | 669 nM |
| O=C(Nc1ccc(CN2CCOCC2)cc1)c1ccc(-c2ccc(Cl)cc2)o1 | 862 nM |
| CCCc1cc(Cc2cnc(N)nc2N)cc(CC)c1OC | 821 nM |
| Clc1ccc2c(NCc3ccccn3)ccnc2c1 | 664 nM |
| Clc1ccc(-c2cnc3ccc(NCCc4cccnc4)nn23)cc1 | 857 nM |
| CC(C)C1C(=O)N(S(C)(=O)=O)C2CCN(C(=O)c3ccc(CN4CCCCC4)c([N+](=O)[O-])c3)C12 (configuration not stated) | 620 nM |
| COc1ccc(CNC2CCN(C)CC2)cc1-c1ccc(S(=O)(=O)NCc2ccccc2)cc1 | 604 nM |
| CCC(C)NS(=O)(=O)c1ccc2nc(Nc3cccc(SC)c3)n(C(C)C(C)C)c2c1 (configuration not stated) | 503 nM |
| O=[N+]([O-])c1ccc2ncnc(Nc3ccc(F)c(Cl)c3)c2c1 | 709 nM |
| Cc1cc(C)c(O)c(-c2cc(C(=O)Nc3ccc(S(=O)(=O)N4CC(C)OC(C)C4)cc3)[nH]n2)c1 (configuration not stated) | 664 nM |

| SMILES | XC50 |
| --- | --- |
| Cc1cc(N[C@@H](Cc2ccccc2)C(=O)NC2CCCC2)nc(NCCc2ccc(F)cc2)n1 | 803 nM |
| CC1CCc2sc(-c3nnc(SC(C)C(=O)NC4CC4)o3)cc2C1 (configuration not stated) | 1210 nM |
| O=C(Cc1ccc[n+]([O-])c1)Nc1cccc(-c2cccc(-c3nc4cc(C(F)(F)F)ccc4[nH]3)c2)c1 | 784 nM |
| CC(=O)Nc1ccc(OCCN(Cc2ccccc2C(F)(F)F)c2ccc(C#N)c(C(F)(F)F)c2)c(Cl)c1 | 619 nM |
| COC(=O)c1cccc(CNCc2cccc(-c3ccc(-c4nc5cccc(C)c5[nH]4)s3)c2)c1 | 211 nM |
| Cc1ccc(CN2CCN(CC(O)COc3ccc4c(c3)CCC4)CC2)cc1 (configuration not stated) | 863 nM |
| CCCCNc1c(CC)c(C)c(C#N)c2nc3ccccc3n12 | 385 nM |
| N=C(N)c1ccc(Nc2nccc(Nc3nc(-c4ccccc4)cs3)n2)cc1 | 754 nM |
| Cc1ccc(Nc2nc(NN=Cc3ccc(-c4ccc([N+](=O)[O-])cc4)o3)nc(N3CCOCC3)n2)cc1Cl | 652 nM |
| CS(=O)(=O)c1cccc(-c2cnc3[nH]cc(-c4ccc(C(=O)O)cc4)c3c2)c1 | 335 nM |
| O=C(N[C@@H](CC1CCCCC1)C(=O)NCCN1CCCCC1)c1ccc(O)c(-c2ccc(Cl)c(Cl)c2)c1 | 148 nM |
| Cc1cccc2nc(-c3cccc(-c4cccc(NC(=O)COc5ccccc5C(N)=O)c4)c3)[nH]c12 | 161 nM |
| CCCCN1CCCN(Cc2cccc(NC(=O)c3ccc(-c4ccccc4)cc3)c2)CC1 | 1030 nM |
| CC1(C)N=C(N)N=C(N)N1c1cccc(Cl)c1 | 37.9 nM |
| COc1ccc2[nH]ccc(=NN=Cc3ccc(N(C)C)cc3)c2c1 | 799 nM |
| COc1ccc(Cl)cc1N1CCN(CCCNC(=O)c2ccc(-c3nc4cc(Cl)c(Cl)cc4[nH]3)c(C)c2)CC1 | 866 nM |
| CC(C)N(Cc1cnc2nc(N)nc(N)c2n1)c1ccc(Cl)c(Cl)c1 | 158 nM |
| CC(C)(CNC(=O)[C@H]1CCCCN1)c1nc(-c2ccc(Cl)c(O)c2)c(-c2ccncc2)[nH]1 | 727 nM |
| Cc1nc(-c2ccc(-c3ccc(C(=O)Nc4ccc(Cl)c(N5CCN(C)CC5)c4)cc3)c(C)c2)no1 | 743 nM |
| COc1ccc(-c2cccc(NC(=O)c3ccc(Cl)cc3)c2)cc1CN1CCCN(C)CC1 | 387 nM |
| Cc1c(-c2cccc(Br)c2)[nH]c2nc(N)nc(N)c12 | 743 nM |
| O=C(Nc1nc2cc(S(=O)(=O)NCCc3ccc(F)cc3)ccc2n1CCCn1ccnc1)c1ccc(Cl)cc1 | 1110 nM |
| COc1cc(C(C)C)ccc1C1CCN(CCCCNC(=O)c2ccc(NC(=O)c3ccc(Cl)cc3)cc2)CC1 | 449 nM |

| SMILES | XC50 |
| --- | --- |
| O=C(c1ccc(F)c2ccccc12)N1CCc2cc3nccc(N4CCN5CCC[C@H]5C4)c3cc21 | 1000 nM |
| O=C(Nc1cccc(CN2CCCN(Cc3ccc(O)cc3)CC2)c1)c1ccc2ccccc2c1 | 373 nM |
| CNCCCn1c(N(C)C)nc2cc(-n3cnc4cc(-c5ccc(Cl)cc5)sc4c3=O)ccc21 | 1140 nM |
| Cc1ccc(C(=O)Nc2cccc(CN3CCCN(Cc4ccc(O)cc4)CC3)c2)cc1 | 1090 nM |
| COc1ccc2[nH]ccc(=NN=Cc3cccnc3)c2c1 | 501 nM |
| O=C(Nc1ccc(Cl)cc1)Nc1cccc(CCNCc2ccccc2)c1 | 728 nM |
| C=CCCCNCC(NCCCNc1cc(=O)c2ccccc2[nH]1)c1cc(Br)cc(Br)c1 (configuration not stated) | 893 nM |
| O=C(Nc1ccc(-c2cncc(NCCCN3CCCC3)c2)cc1)c1ccccc1 | 939 nM |
| COc1ccc(N2C(=O)c3c(c4ccccc4n3C)C2c2ccccc2O)cc1 (configuration not stated) | 117 nM |
| CN1CCN(c2nc(NCCNc3ccc([N+](=O)[O-])cc3)c3ccccc3n2)CC1 | 1320 nM |
| CCCCCCCCNCc1c(O)ccc2ccccc12 | 739 nM |
| Cc1cccc(Nc2nc(N[C@@H]3CCCNC3)nc3cc[nH]c(=O)c23)c1 | 683 nM |
| COc1ccc(C2c3cc(OC)c(OC)cc3C(=NO)C2C)cc1OC (configuration not stated) | 1170 nM |
| NOCCCCOc1ccc(Cl)cc1 | 785 nM |
| CC(C)Oc1cc2c(cc1NS(=O)(=O)c1ccc(-c3cccs3)cc1)CCN(C)CC2 | 961 nM |
| Fc1ccc(CNc2nc(-c3ccc(F)c(C(F)(F)F)c3)n(-c3cccc(C(F)(F)F)c3)n2)cc1 | 563 nM |
| COC(=O)c1cccc(CNCc2cccc(-c3ccc(-c4nc5ccccc5[nH]4)cc3)c2)c1 | 354 nM |
| COC(=O)CC[C@H](NC(=O)[C@H](C)NC(=O)OC(C)(C)C)C(=O)OC (Boc-Ala-Glu(OMe)-OMe) | 819 nM |
| O=C(NCC(=O)N1CCC[C@H]1C(=O)O)[C@@H](Cc1ccccc1)NC(=O)[C@@H]1CCCN1C(=O)CCCc1ccc(O)cc1 ({Butanoyl(4-(4-HOPh))}-P[dF]GP-OH) | 1050 nM |
| NC12CC3CC(CC(C3)C1)C2 [AMANTADINE] | 164 nM |
| COc1ccc(C[C@H]2NC[C@H](O)[C@H]2OC(C)=O)cc1 [ANISOMYCIN] | 138 nM |
| CO/C=C(/C(=O)OC)c1ccccc1Oc1cc(Oc2ccccc2C#N)ncn1 [AZOXYSTROBIN] | 40.5 nM |
| O=P(O)(O)Oc1c(Br)cc(Br)cc1-c1cc(Br)cc(Br)c1O [BROMOFENOFOS] | 173 nM |

| SMILES | XC50 |
| --- | --- |
| CC1=CC(=O)[C@@H](O)[C@]2(C)[C@H]3[C@@]4(O)OC[C@@]35[C@@H](C[C@@H]12)OC(=O)C[C@H]5[C@@H](C)[C@H]4O [CHAPARRINONE] | 347 nM |
| CCN(CC)CCCC(C)Nc1ccnc2cc(Cl)ccc12 (configuration not stated) [CHLOROQUINE PHOSPHATE] | 178 nM |
| C=C[C@H]1CN2CC[C@H]1C[C@H]2[C@H](O)c1ccnc2ccccc12 [CINCHONIDINE] | 172 nM |
| C=C[C@H]1CN2CC[C@H]1C[C@@H]2[C@@H](O)c1ccnc2ccccc12 [CINCHONINE] | 766 nM |
| C[C@@H]1C[C@@H]([C@H](O)CC2CC(=O)NC(=O)C2)C(=O)[C@@H](C)C1 [CYCLOHEXIMIDE] | 527 nM |
| O=c1ccc2ccc(O)c(O)c2o1 [DAPHNETIN] | 32.2 nM |
| CCC1=C(CC2NCCc3cc(OC)c(OC)cc32)CC2c3cc(OC)c(OC)cc3CCN2C1 (configuration not stated) [DIHYDROEMETINE] | 312 nM |
| CCC(Cc1cnc2nc(N)nc(N)c2n1)c1ccc(C(=O)N[C@@H](CCC(=O)O)C(=O)O)cc1 (some centres not stated) [EDATREXATE] | 36.7 nM |
| Cc1c2ccncc2c(C)c2c1[nH]c1ccccc12 [ELLIPTECINE] | 796 nM |
| CC[C@H]1CN2CCc3cc(OC)c(OC)cc3[C@@H]2C[C@@H]1C[C@H]1NCCc2cc(OC)c(OC)cc21 [EMETINE] | 214 nM |
| CCOc1cc(Cc2cnc(N)nc2N)cc(OCC)c1-n1cccc1 [EPIROPRIM] | 761 nM |
| CN(C)c1cc2c(Nc3ccc4nc(Cc5ccccc5)[nH]c4c3)ncnc2cn1 [GW301888X] | 1140 nM |
| Cc1ccc(O)cc1Nc1ccnc2cc(-c3ccccn3)ccc12 [GW440139A] | 761 nM |
| CS(=O)(=O)CCNCc1ccc(-c2ccc3ncnc(Nc4ccc(OCc5ccccc5)c(Cl)c4)c3c2)o1 [GW574783B] | 557 nM |
| Nc1ncnc2occ(-c3ccc(NC(=O)Nc4cc(C(F)(F)F)ccc4F)cc3)c12 [GW770249A] | 1720 nM |
| CCS(=O)(=O)Nc1ccc2c(c1)/C(=C(/Nc1ccc(CN3CCCCC3)cc1)c1ccccc1)C(=O)N2 [HESPERADIN] | 56.5 nM |
| COc1c(O)cc2oc(-c3ccc(O)cc3)cc(=O)c2c1O [HISPIDULIN] | 771 nM |
| CCN(CCO)CCCC(C)Nc1ccnc2cc(Cl)ccc12 (configuration not stated) [HYDROXYCHLOROQUINE SULFATE] | 762 nM |
| O=C(Nc1cc(C(F)(F)F)cc(C(F)(F)F)c1)c1cc(Cl)ccc1O [IMD-0354] | 1310 nM |
| O=C(Nc1cccc(C2=NCCN2)c1)Nc1cccc(C2=NCCN2)c1 [IMIDOCARB] | 419 nM |
| c1ccc([C@H]2CN3CCSC3=N2)cc1 [LEVAMISOLE] | 622 nM |
